Test [1] deals with acute hippocampal slices (area CA1). As to the kind of experiment: f-EPSP recovery after transient OGD in acute hippocampal slices. The class given is cell-based, mouse. The following applies: for mean f-EPSP slope 80-90 min after the onset of OGD: 25 min OGD, % of pre-OGD baseline. Here is the method: (§1) Adult mice were killed by cervical dislocation and the heads were immediately immersed in freshly prepared ice-cold artificial cerebrospinal fluid (aCSF: 119 mM NaCl, 11 mM D-glucose, 1.3 mM MgCl2.6H2O, 1.3 mM NaH2PO4, 2.5 mM KCl, 2.5 mM CaCl2, 26 mM NaHCO3, gassed with 95% O2/5% CO2 for a minimum of 20-min) for at least 3 min. Brains were quickly removed and hippocampi were extracted for electrophysiological recordings. Acute slices (400 μm thick) were prepared with a vibratome (Leica VT 1000S, Germany) in ice-cold oxygenated aCSF. Slices were transferred to an interface chamber at 34° C. for 40 to 50 min then kept at room temperature for at least 1-2 hours before recording. Recordings were performed in a submersion chamber (Slice Mini Chamber III/IV, Luigs & Neumann, Germany) continuously perfused with aCSF at approximately 1.1 ml/min. A monopolar electrode was placed in the stratum radiatum to activate Schaffer collaterals and test stimuli were applied at 0.033 Hz at an intensity set to evoke 1/3 of the maximum f-EPSP. Evoked f-EPSP were recorded in the stratum radiatum with a borosilicate micropipette filled with NaCl 3M or aCSF. The signal was amplified with an AXOPATCH 200B amplifier (Axon Instruments/Molecular Devices, Germany) and sampled using pCLAMP. Baseline responses were recorded for 10-min or until stable. For extracellular recordings in example 8, a monopolar electrode is placed in the Schaffer collateral fibers, and stimulation is applied at 0.033 Hz with stimulus intensity ranging from 20 to 80 μA, yielding evoked field EPSPs (fEPSPs) of […]. fEPSPs are recorded in the stratum radiatum using a borosilicate micropipette filled with aCSF.
For each electrophysiological experiment, the average slope of individual f-EPSP was measured from the initial 1-1.5 ms-portion following the fiber volley using Clampfit (Axon Instruments, Germany). For statistical analyses, the f-EPSP slope was averaged over 1-min and analyzed by three-way analysis of variance (ANOVA) using Statview 5.0 with sequences (10-min) and stimulation (1-min bins) as repeated measures. […] Infarct volume and DNA fragmentation were analyzed by two-tailed t-tests. Western blots were evaluated by one-way ANOVA followed by LSD post-hoc tests. Statistical significance was set at p=0.05, data are presented as mean±SEM.
Graded doses of OA were used to inhibit both PP1 and PP2A, or PP2A alone.

Test [2] relates to PP1. The settings on record: literature ranges, cited from earlier work.
The next test has as its system PP2A. The settings on record: literature ranges, cited from earlier work.
In the next test the test system is hippocampal slices. The settings on record: 1 μM OA; cited from earlier work.
Test [3] has as its system hippocampal slices (Schaffer collaterals/CA1). In words: LTD (f-EPSP slope) in hippocampal slices. The class given is cell-based, mouse. The settings on record: 1 nM tautomycin, LTD without OGD. Here is the method:
as §1, with “1.1 ml/min. […] Evoked f-EPSP” for “1.1 ml/min. A monopolar electrode was placed in the stratum radiatum to activate Schaffer collaterals and test stimuli were applied at 0.033 Hz at an intensity set to evoke 1/3 of the maximum f-EPSP. Evoked f-EPSP”, “or aCSF. […] Baseline responses” for “or aCSF. The signal was amplified with an AXOPATCH 200B amplifier (Axon Instruments/Molecular Devices, Germany) and sampled using pCLAMP. Baseline responses”, “with aCSF. […]” for “with aCSF.”

The test system of test [4] is PP1. The following applies: 1 nM tautomycin (submaximal dose); cited from earlier work.
The next test relates to ERK1. In words: Western blot of phosphorylated ERK1 in slices subjected to OGD. The following applies: control slices treated with tautomycin (3 nM) and subjected to OGD. In general terms: A western blot detects proteins with antibodies after separation by electrophoresis.
The test system of another test is ERK2. As to the kind of experiment: Western blot of phosphorylated ERK2 in slices subjected to OGD. The settings on record: control slices treated with tautomycin (3 nM) and subjected to OGD.
For another test, the system named is JNK1. As to the kind of experiment: Western blot of phosphorylated JNK1 in slices subjected to OGD. The settings on record: PP1 inhibition (tautomycin) or OGD in vitro.
The test system of another test is JNK2. In words: Western blot of phosphorylated JNK2 in slices subjected to OGD. The following applies: PP1 inhibition (tautomycin) in vitro.

Consider two compounds from US20100310543A1, “METHOD OF PREVENTING AND TREATING ACUTE BRAIN PATHOLOGIES” (UNIVERSITY OF ZURICH, priority 2007, published 2010).

Several values for one entry are separate records, joined by “and”; a condition that tells them apart may be missing. Equal values may be shown once. Read-outs that look alike come from different tables or passages of the source.

Method for ERK1: (§2) Acute slices (hippocampus, cortex and striatum) were exposed to 15 to 25-min of hypoxic/aglycemic conditions by perfusion with aCSF containing no glucose (replaced with equimolar sucrose) and gassed with N2/CO2 (95/5%) (Lobner and Lipton, 1993; Raley-Susman and Lipton, 1990). […] The OGD solution reached the recording chamber within 30 seconds and replaced the normoxic aCSF within 2-3 min.
(§3) Drugs for slice recordings were bath-applied for 2 hours before recording in oxygenated aCSF. Okadaic acid (Alexis Corporation, Switzerland) and tautomycin (Alexis Corporation and Sigma Aldrich, Switzerland) were dissolved in DMSO (30 mM) and methanol or ethanol (1 mM), respectively, and stock solutions were diluted further in aCSF the day of the experiment. The respective solvents were used for drug-control experiments. For both mutant and control slices, the aCSF was supplemented with doxycycline hydrochloride (Sigma, Buchs, Switzerland) at 8 ng/ml.
(§4) Tissue samples from the striatum ipsilateral and contralateral to MCAO or from acute forebrain slices (hippocampus, cortex and striatum) were homogenized in lysis buffer and centrifuged. Supernatants were resolved on SDS-PAGE and proteins were transferred onto PVDF membranes. […] The band intensity was determined by densitometry and corrected for protein loading using anti-β-actin antibody (A5316; Sigma) as an internal control.
Method for ERK2: as §2, §3, §4
Method for JNK1: as §2, §3, §4
Method for JNK2: as §2, §3, §4

For `C=C1[C@@H](O)[C@@H]2O[C@]3(CC[C@H](/C=C/[C@@H](C)[C@@H]4CC(C)=C[C@@]5(O[C@H](C[C@@](C)(O)C(=O)O)CC[C@H]5O)O4)O3)CC[C@H]2O[C@@H]1[C@@H](O)C[C@H](C)[C@H]1O[C@@]2(CCCCO2)CC[C@H]1C` [OA, okadaic acid], the “mean f-EPSP slope 80-90 min after the onset of OGD” value in [1] (0.1 nM drug) was 76.6±20.5%; in [1] (1 nM drug) it was 86.8±5.2%; in [1] (10 nM drug), 56.6±23.9%; in [1] (100 nM drug), 43.5±16.6% and 43.1±15.6%; in [1] (1 μM drug) it was 20.2±13.9% and 20.3±14.4%. Also, the IC50 was 20 to 100 nM with PP1 [2], 10 to 1300 nM in the test on PP1 [2] (listed as okadaic acid), 0.1 to 1 nM in the test with PP2A and 0.02 to 1 nM in the test with PP2A (listed as okadaic acid). The “effect on LTP induced by a single 1-sec train at 100 Hz” value with hippocampal slices is recorded as “blocked”.

On to `CO[C@H]([C@H](O)CC(=O)[C@@H](C)[C@@H](O)CC[C@@H](C)[C@@H]1O[C@]2(CC[C@@H](C)[C@H](CC[C@H](C)C(C)=O)O2)CC[C@@H]1C)[C@H](OC(=O)C[C@@H](O)C1=C(C)C(=O)OC1=O)C(C)C` [tautomycin], for which the “mean f-EPSP slope 80-90 min after the onset of OGD” value in test [1] (1 nM drug) came to 88.6±1.5%; in [1] (3 nM drug), 31.4±4.6%; in [1] (10 nM drug) it was 4.4±2.9%; in test [1] (100 nM drug), 0.9±1.3%. Further, the “f-EPSP slope after LTD+OGD, % of baseline 90 min after LTD induction” value in test [1] (1 nM tautomycin, I-1* mutant slices, LTD 10 min prior to OGD) came out at 37.0±10.8%. Also, the “f-EPSP slope after LTD, % of baseline at 90 min” value in [3] (I-1* mutant slices) worked out at 96.3±3.6%; in test [3] (control slices), 85.2±3.0%. The IC50 in the test on PP2A is 10 to 23 nM and 10 to 20 nM. The PP1 inhibition result with PP1 [4] is listed as “about 30%”. Moreover, in the test with ERK1, the “increase in phosphorylated ERK1” value is recorded as “+366.8±48.6%”. The “increase in phosphorylated ERK2” value in the test with ERK2 is given as “+404.1±28.5%”. Moreover, the JNK1 phosphorylation entry in the test with JNK1 was “not altered”. Moreover, the “phosphorylated JNK2” value in the test on JNK2 is listed as “did not increase”.

By IC50 is commonly meant the concentration that gives 50% inhibition.
